In ChEMBL document CHEMBL5729461, “CDPK1 inhibitors, compositions, and methods related thereto” (2022):
pIC50: −log10 of the molar value.

Molecular target: T1, Calmodulin-domain protein kinase 1 (Toxoplasma gondii, UniProt Q9BJF5)
T1 sequence (Q9BJF5 whole entry): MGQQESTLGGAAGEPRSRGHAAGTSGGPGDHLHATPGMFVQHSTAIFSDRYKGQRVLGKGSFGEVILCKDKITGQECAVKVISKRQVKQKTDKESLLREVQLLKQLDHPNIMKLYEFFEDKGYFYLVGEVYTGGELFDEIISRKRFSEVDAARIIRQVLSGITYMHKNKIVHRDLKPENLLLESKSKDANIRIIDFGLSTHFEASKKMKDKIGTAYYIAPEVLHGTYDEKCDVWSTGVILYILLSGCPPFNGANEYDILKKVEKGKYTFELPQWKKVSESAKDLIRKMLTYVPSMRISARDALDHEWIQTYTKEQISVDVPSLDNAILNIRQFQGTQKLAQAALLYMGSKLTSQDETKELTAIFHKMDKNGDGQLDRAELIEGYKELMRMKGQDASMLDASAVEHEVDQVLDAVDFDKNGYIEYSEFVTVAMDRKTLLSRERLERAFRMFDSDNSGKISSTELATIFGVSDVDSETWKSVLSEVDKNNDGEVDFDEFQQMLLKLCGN
Assay: Inhibition Assay: Certain of the compounds prepared as described above were assayed to determine their IC50 for inhibition of T. gondii CDPK1 (tgCDPK1). At least three independent replicates of the assay were conducted for each compound tested.

SMILES | pIC50
N#Cc1cccc(Cc2nn([C@H]3C[C@H](F)C3)c3ncnc(N)c23)c1 | 7.34
Nc1ncnc2c1c(Cc1cccc(F)c1)nn2[C@H]1C[C@H](F)C1 | 7.85
Nc1ncnc2c1c(Cc1cccc(Cl)c1)nn2[C@H]1C[C@@H](F)C1 | 8.15
COc1ccnc(Oc2nn([C@H]3C[C@@H](O)C3)c3ncnc(N)c23)c1 | 7.43
Nc1ncnc2c1c(Cc1cccc(F)c1)nn2[C@H]1C[C@H](O)C1 | 7.55
Nc1ncnc2c1c(Cc1cccc(C(F)(F)F)c1)nn2[C@H]1C[C@H](O)C1 | 7.44
Nc1ncnc2c1c(Cc1cccc(F)c1)cn2[C@H]1C[C@H](O)C1 | 7.55
NC(=O)c1ccnc(Oc2nn([C@H]3C[C@H](F)C3)c3ncnc(N)c23)c1 | 7.16
Nc1ncnc2c1c(Cc1cccc(Cl)c1)nn2[C@H]1C[C@H](O)C1 | 8.05
